# Assay results reported in ChEMBL document CHEMBL5104103 (J Med Chem, 2022).
# Activity calls are given as the source filed them. The rule behind the calls is not given here.
# Legend:
# [1] = target: Epidermal growth factor receptor (Homo sapiens, UniProt P00533); assay: Inhibition of EGFR (unknown origin) using peptide substrate in presence of ATP by caliper electrophoresis method
# [2] = Clearance in rat at 2 mg/kg, iv; format: ADME, organism-based; conditions: in vivo
# [3] = target: T1, Tyrosine-protein kinase JAK3 (Homo sapiens, UniProt P52333); assay: Inhibition of JAK3 (unknown origin) using peptide substrate in presence of ATP by caliper electrophoresis method
# T1 sequence (P52333 whole entry): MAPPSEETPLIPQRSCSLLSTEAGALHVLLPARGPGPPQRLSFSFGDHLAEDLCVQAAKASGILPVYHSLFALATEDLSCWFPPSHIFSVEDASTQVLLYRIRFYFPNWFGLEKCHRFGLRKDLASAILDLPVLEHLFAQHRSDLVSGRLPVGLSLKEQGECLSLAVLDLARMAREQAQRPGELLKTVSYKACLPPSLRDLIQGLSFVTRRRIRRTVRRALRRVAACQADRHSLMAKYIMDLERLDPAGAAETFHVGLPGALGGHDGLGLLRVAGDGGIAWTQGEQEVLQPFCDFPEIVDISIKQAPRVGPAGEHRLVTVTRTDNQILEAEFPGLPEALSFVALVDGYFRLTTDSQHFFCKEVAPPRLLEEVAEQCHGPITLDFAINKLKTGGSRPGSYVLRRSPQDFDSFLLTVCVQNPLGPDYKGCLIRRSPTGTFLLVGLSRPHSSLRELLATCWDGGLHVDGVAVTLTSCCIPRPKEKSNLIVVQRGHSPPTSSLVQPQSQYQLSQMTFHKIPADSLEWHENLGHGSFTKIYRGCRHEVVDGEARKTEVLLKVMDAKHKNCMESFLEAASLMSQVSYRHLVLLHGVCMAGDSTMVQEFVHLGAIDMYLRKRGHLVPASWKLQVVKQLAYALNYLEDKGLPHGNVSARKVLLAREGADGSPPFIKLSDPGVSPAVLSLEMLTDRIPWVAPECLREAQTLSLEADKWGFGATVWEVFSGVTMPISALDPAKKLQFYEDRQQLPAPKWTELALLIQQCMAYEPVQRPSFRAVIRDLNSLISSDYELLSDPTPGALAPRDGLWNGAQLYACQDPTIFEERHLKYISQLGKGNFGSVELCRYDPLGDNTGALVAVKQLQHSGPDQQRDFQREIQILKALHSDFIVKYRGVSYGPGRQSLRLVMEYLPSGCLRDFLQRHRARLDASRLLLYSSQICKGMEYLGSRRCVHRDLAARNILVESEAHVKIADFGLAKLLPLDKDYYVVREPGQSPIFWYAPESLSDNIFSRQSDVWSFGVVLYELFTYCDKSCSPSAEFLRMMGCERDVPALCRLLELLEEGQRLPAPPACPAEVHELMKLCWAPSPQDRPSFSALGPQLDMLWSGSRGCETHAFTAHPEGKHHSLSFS
# [4] = Solubility of compound in PBS at pH 7 by LCMS/MS analysis; format: physicochemical
# [5] = target: T2, Tyrosine-protein kinase BTK (Homo sapiens, UniProt Q06187); assay: Inhibition of biotinylated-labeled BTK-selective probe binding to BTK in human Ramos assessed as target occupancy pretreated for 1 hr followed by probe addition measured for 18 hrs by AlphaScreen assay; format: cell-based
# [6] = target: T2, Tyrosine-protein kinase BTK; assay: Inhibition of BTK (unknown origin) using peptide substrate in presence of ATP by caliper electrophoresis method
# [7] = Oral bioavailability in rat at 20 mg/kg; format: ADME, organism-based; conditions: in vivo
# [8] = target: T3, Tyrosine-protein kinase Tec (Homo sapiens, UniProt P42680); assay: Inhibition of TEC (unknown origin) using peptide substrate in presence of ATP by caliper electrophoresis method
# T3 sequence (P42680 whole entry): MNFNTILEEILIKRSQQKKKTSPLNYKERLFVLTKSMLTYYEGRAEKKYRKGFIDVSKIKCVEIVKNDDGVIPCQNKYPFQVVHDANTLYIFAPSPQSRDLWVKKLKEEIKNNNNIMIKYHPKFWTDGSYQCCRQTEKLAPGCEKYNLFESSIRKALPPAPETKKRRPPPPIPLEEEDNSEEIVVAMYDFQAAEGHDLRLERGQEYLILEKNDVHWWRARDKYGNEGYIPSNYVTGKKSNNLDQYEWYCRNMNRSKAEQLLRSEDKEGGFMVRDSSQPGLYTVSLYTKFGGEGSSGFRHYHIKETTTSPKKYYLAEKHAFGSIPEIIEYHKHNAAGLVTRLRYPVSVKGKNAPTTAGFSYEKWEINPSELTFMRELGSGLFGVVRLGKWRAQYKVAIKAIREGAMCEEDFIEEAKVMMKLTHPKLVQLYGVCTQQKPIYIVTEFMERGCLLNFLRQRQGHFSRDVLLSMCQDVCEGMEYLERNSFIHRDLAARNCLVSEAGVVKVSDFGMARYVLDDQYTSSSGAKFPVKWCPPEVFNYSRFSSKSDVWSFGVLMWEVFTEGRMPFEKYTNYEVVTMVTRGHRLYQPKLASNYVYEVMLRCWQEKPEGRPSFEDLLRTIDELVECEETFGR
# [9] = AUC in rat at 20 mg/kg, po or 2 mg/kg, iv; format: ADME, organism-based; parameters: dose 20 mg/kg, route po; conditions: in vivo
# [10] = Toxicity in male Beagle dog assessed as NOAEL; parameters: species or system Canis lupus familiaris; conditions: in vivo
# [11] = Drug concentration in plasma of collagen-induced arthritis Lewis rat model 3 mg/kg/day, po measured after 6 hrs post-collection of plasma; format: ADME, organism-based
# Canis lupus familiaris = assay: Effect on canine pemphigus foliaceous dog model assessed as reduction in lesion at 8 to 21 mg/kg measured for 2 weeks; format: functional, organism-based; conditions: dose lower 8.0 mg/kg, dose upper […]
# [12] = Toxicity in female Beagle dog assessed as weight loss up to 400 mg/kg/day qd for 12 weeks; format: organism-based, Canis lupus familiaris; conditions: in vivo, 2016 h
# Sequence of Epidermal growth factor receptor (P00533 whole entry): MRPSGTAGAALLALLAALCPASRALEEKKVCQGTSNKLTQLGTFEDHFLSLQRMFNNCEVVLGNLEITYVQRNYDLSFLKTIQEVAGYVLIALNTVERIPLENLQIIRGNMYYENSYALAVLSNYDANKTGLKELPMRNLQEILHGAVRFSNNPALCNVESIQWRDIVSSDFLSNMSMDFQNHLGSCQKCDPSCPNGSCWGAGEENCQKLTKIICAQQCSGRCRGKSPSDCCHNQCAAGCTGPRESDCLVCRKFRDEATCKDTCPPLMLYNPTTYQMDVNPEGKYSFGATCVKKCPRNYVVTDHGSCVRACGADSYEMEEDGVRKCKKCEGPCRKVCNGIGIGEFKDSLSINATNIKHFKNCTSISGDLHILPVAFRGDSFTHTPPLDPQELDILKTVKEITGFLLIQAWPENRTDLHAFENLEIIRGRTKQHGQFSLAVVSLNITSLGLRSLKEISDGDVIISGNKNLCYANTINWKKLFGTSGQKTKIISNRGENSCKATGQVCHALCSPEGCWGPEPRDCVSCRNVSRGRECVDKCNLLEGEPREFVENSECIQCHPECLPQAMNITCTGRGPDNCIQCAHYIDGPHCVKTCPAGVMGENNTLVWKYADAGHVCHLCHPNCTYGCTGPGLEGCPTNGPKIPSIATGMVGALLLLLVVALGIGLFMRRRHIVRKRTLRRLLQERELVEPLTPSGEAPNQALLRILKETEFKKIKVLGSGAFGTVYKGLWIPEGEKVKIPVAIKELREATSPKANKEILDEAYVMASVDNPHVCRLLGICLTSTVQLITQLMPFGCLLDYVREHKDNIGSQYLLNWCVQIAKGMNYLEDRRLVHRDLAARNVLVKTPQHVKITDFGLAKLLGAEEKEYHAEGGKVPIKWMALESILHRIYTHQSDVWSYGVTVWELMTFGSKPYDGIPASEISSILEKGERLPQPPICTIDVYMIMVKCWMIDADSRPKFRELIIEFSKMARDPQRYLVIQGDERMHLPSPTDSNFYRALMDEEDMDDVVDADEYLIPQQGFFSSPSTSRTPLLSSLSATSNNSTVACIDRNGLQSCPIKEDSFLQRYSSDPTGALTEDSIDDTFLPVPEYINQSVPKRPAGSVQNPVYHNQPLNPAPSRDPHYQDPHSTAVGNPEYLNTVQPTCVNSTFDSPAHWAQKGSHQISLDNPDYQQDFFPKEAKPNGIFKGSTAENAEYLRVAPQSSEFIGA
# T2 sequence (Q06187 whole entry): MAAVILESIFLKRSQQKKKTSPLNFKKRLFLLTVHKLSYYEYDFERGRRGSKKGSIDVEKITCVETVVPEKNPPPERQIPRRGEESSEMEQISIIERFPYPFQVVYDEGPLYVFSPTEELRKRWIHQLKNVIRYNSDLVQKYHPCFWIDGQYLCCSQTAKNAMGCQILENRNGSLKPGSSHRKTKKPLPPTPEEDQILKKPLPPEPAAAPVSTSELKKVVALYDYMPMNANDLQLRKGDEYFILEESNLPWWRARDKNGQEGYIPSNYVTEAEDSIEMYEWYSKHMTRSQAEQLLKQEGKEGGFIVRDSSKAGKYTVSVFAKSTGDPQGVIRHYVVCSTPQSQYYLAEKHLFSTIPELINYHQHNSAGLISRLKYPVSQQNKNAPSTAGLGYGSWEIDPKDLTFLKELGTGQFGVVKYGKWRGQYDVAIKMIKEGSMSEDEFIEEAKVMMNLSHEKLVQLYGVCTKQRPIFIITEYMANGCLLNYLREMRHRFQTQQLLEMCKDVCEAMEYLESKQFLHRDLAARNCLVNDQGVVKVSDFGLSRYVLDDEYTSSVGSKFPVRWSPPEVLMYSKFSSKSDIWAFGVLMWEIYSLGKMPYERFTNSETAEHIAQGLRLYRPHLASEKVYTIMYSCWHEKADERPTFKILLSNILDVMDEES
SMILES,IC50 [1] [nM],clearance [2] [mL/min/kg],IC50 [3] [nM],solubility [4] [µM],IC50 [5] [nM],IC50 [6] [nM],bioavailability [7] [%],IC50 [8] [nM],AUC ([9]; read-out: AUC) [ng·h/mL],NOAEL [10] [mg/kg],concentration at 6 h [11] [ng/mL],"F ([7]; po, 20 mg/kg) [%]",Activity (Canis lupus familiaris),AUC [9] [ng·h/mL],Activity [12]
CC(C)(/C=C(/C#N)C(=O)N1CCC[C@@H]1Cn1nc(-c2ccc(Oc3ccccc3)cc2F)c2c(N)ncnc21)N1CCOCC1,3000,120,> 5000,215,35.9,72,17.3,4.5,478,,,,,,
CC(C)(C)/C=C(\C#N)C(=O)N1CCC[C@@H](n2nc(-c3ccc(Oc4ccccc4)cc3F)c3c(N)ncnc32)C1 [ATUZABRUTINIB],368,,> 5000,2.1,30.1,1.8,,1.9,,400,5.2,21.1,Active,1071,Toxic
CN1CCN(C(C)(C)/C=C(\C#N)C(=O)N2CCC[C@@H](n3nc(-c4ccc(Oc5ccccc5)cc4F)c4c(N)ncnc43)C2)CC1,980,119,> 5000,315,,,20.2,0.5,568,,,,,,
